Test [1] has as its system A549 (human lung carcinoma) cells. The test can be described thus: Cell Viability Assay (CellTiter-Glo), A549. It counts as cell-based. The note with it: Homo sapiens, A549, 72 h. The method in brief: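 Luminescent ATP read-out (CellTiter-Glo) after 72 h compound treatment of cells seeded overnight at 1.67E+04 cells/mL in RPMI 1640, 10% FBS; signal relative to DMSO, IC50 by 4-parameter logistic model.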

Test [2] deals with KRAS G12C (Homo sapiens (Human), UniProt P01116, C118A/G12C). The test can be described thus: 2 h coupled exchange assay. It counts as biochemical. The settings on record: Avg 2 h Coupled exchange IC50, 2 h compound pre-incubation, SOS-mediated nucleotide exchange. Here is the method: The term “2 h coupled exchange assay” or “20 h coupled exchange assay” as used herein refers to the assay described in the Section entitled “BIOLOGICAL EVALUATION.”
Sequence of KRAS G12C (P01116 other isoform, or with tags, fused parts or gaps G12C/C118A): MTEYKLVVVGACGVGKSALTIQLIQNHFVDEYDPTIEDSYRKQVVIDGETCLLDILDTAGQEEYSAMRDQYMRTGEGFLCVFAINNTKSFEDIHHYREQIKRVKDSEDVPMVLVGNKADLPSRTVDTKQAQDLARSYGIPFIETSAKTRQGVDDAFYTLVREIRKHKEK

Test [3] has as its system MIA PaCa-2 (human pancreatic carcinoma) cells. The test can be described thus: Cell Viability Assay (CellTiter-Glo), MIA PaCa-2. Format: cell-based. The settings on record: Homo sapiens, MIA PaCa-2, 72 h. On the procedure: Serially-diluted compound or DMSO was added to the cells, and plates were incubated at 37° C., 5% CO2 for 72 h. Cell viability was measured using a CellTiter-Glo® Luminescent Cell Viability Assay kit (Promega) according to the manufacturer's protocol. The luminescence signal of treated samples was normalized to DMSO control, and data were analyzed using a 4-parameter logistic model to calculate IC50 values.
(Cellular ATP, detected with luciferase, serves as a proxy for viable cell number.)

Structures are written as SMILES.

For the compound `C=CC(=O)N1CC2(CCN(c3nc4c(c(-c5ccccc5Cl)c3C#N)CC[C@@H](c3ccnn3C)C4)C2)C1` [Example 13-20, (7R)-4-(2-chlorophenyl)-7-(1-methyl-1H-pyrazol-5-yl)-2-(2-(2-propenoyl)-2,6-diazaspiro[3.4]octan-6-yl)-5,6,7,8-tetrahydro-3-quinolinecarbonitrile], the figures for the IC50 in test [1], in test [2] and in test [3] were 3 µM, 12 nM and 224 nM, respectively.

Regarding `C=CC(=O)N1CC2(CCN(c3nc4c(c(-c5ccccc5Cl)c3C#N)CC[C@H](c3ccnn3C)C4)C2)C1` [Example 13-21, (7S)-4-(2-chlorophenyl)-7-(1-methyl-1H-pyrazol-5-yl)-2-(2-(2-propenoyl)-2,6-diazaspiro[3.4]octan-6-yl)-5,6,7,8-tetrahydro-3-quinolinecarbonitrile], the IC50 was over 5 µM in test [1], 62 nM in test [2] and 615 nM in test [3].

Regarding `C=CC(=O)N1CC2(CCN(c3nc4c(c(-c5ccccc5F)c3C#N)CCC(c3ccnn3C)C4)C2)C1` [Example 13-26, (7R)-4-(2-fluorophenyl)-7-(1-methyl-1H-pyrazol-5-yl)-2-(2-(2-propenoyl)-2,6-diazaspiro[3.4]octan-6-yl)-5,6,7,8-tetrahydro-3-quinolinecarbonitrile|(7S)-4-(2-fluorophenyl)-7-(1-methyl-1H-pyrazol-5-yl)-2-(2-(2-propenoyl)-2,6-diazaspiro[3.4]octan-6-yl)-5,6,7,8-tetrahydro-3-quinolinecarbonitrile], the concentration for half-maximal inhibition (IC50) in test [1] was over 5 µM; in test [2] it was 35 nM; in test [3], 280 nM.

On to `C=CC(=O)N1CC2(CCN(c3nc4c(c(-c5cc(O)cc6ccccc56)c3C#N)COC(C)(C)C4)C2)C1` [Example 13-41, 4-(3-hydroxy-1-naphthalenyl)-7,7-dimethyl-2-(2-(2-propenoyl)-2,6-diazaspiro[3.4]octan-6-yl)-7,8-dihydro-5H-pyrano[4,3-b]pyridine-3-carbonitrile], for which the half-maximal inhibitory concentration (IC50) in test [1] was over 5 µM; in test [2], 33 nM; in test [3], 190 nM.

Regarding `C=CC(=O)N1CC2(CCN(c3nc4c(c(-c5c(C)ccc6[nH]ncc56)c3C(=O)OC)CCC(C)(C)C4)C2)C1` [Example 13-44, methyl 7,7-dimethyl-4-(5-methyl-1H-indazol-4-yl)-2-(2-(2-propenoyl)-2,6-diazaspiro[3.4]octan-6-yl)-5,6,7,8-tetrahydro-3-quinolinecarboxylate], the figures for the IC50 in test [1], in test [2] and in test [3] were over 5 µM, 589 nM and 1440 nM, respectively.

With `C=CC(=O)N1CC2(CCN(c3nc4c(c(-c5c(C)ccc6[nH]ncc56)c3C(F)F)COC(C)(C)C4)C2)C1` [Example 13-45, 1-(6-(3-(difluoromethyl)-7,7-dimethyl-4-(5-methyl-1H-indazol-4-yl)-7,8-dihydro-5H-pyrano[4,3-b]pyridin-2-yl)-2,6-diazaspiro[3.4]octan-2-yl)-2-propen-1-one], the half-inhibitory concentration (IC50) in test [1] was over 5 µM; in test [2] it was 148 nM; in test [3], 421 nM.

Take `C=CC(=O)N1CC2(CCN(c3nc4c(c(-c5c(C)ccc6cnn(C)c56)c3C#N)COC(C)(C)C4)C2)C1` [Example 13-49, 4-(1,6-dimethyl-1H-indazol-7-yl)-7,7-dimethyl-2-(2-(2-propenoyl)-2,6-diazaspiro[3.4]octan-6-yl)-7,8-dihydro-5H-pyrano[4,3-b]pyridine-3-carbonitrile]: the IC50 in test [1] was over 5 µM; in test [2], 123 nM; in test [3], 442 nM.

As to `C=CC(=O)N1CC2(CCN(c3nc4c(c(-c5c(C)ccc6[nH]ncc56)c3C#N)COC3(CCOCC3)C4)C2)C1` [Example 13-50, 4′-(5-methyl-1H-indazol-4-yl)-2′-(2-(2-propenoyl)-2,6-diazaspiro[3.4]octan-6-yl)-2,3,5,5′,6,8′-hexahydrospiro[pyran-4,7′-pyrano[4,3-b]pyridine]-3′-carbonitrile], the IC50 in test [1] was over 5 µM; in test [2], 76 nM; in test [3] it was 198 nM.

Take `C=CC(=O)N1CC2(CCN(c3nc4c(c(-c5c(C)ccc6[nH]ncc56)c3C#N)COC3(CCOC3)C4)C2)C1` [Example 13-51, (3R)-4′-(5-methyl-1H-indazol-4-yl)-2′-(2-(2-propenoyl)-2,6-diazaspiro[3.4]octan-6-yl)-4,5,5′,8′-tetrahydrospiro[furan-3,7′-pyrano[4,3-b]pyridine]-3′-carbonitrile|(3S)-4′-(5-methyl-1H-indazol-4-yl)-2′-(2-(2-propenoyl)-2,6-diazaspiro[3.4]octan-6-yl)-4,5,5′,8′-tetrahydrospiro[furan-3,7′-pyrano[4,3-b]pyridine]-3′-carbonitrile]: the IC50 is over 5 µM in test [1], 95 nM in test [2] and 287 nM in test [3].

Turning to `C=CC(=O)N1CC2(CCN(c3nc4c(c(-c5c(C)ccc6[nH]ncc56)c3C#N)CC(C)(C)C4)C2C)C1` [Example 13-52, 6,6-dimethyl-4-(5-methyl-1H-indazol-4-yl)-2-((5R)-5-methyl-2-(2-propenoyl)-2,6-diazaspiro[3.4]octan-6-yl)-6,7-dihydro-5H-cyclopenta[b]pyridine-3-carbonitrile|6,6-dimethyl-4-(5-methyl-1H-indazol-4-yl)-2-((5S)-5-methyl-2-(2-propenoyl)-2,6-diazaspiro[3.4]octan-6-yl)-6,7-dihydro-5H-cyclopenta[b]pyridine-3-carbonitrile], the figures for the IC50 in test [1], in test [2] and in test [3] were over 5 µM, 43 nM and 231 nM, respectively.

With `C=CC(=O)N1CC2(CCN(c3nc4c(c(-c5cc(O)cc6ccccc56)c3C#N)CC(C)(C)C4)C2)C1` [Example 13-65, 4-(3-hydroxy-1-naphthalenyl)-6,6-dimethyl-2-(2-(2-propenoyl)-2,6-diazaspiro[3.4]octan-6-yl)-6,7-dihydro-5H-cyclopenta[b]pyridine-3-carbonitirle], the IC50 was over 5 µM in test [1], 74 nM in test [2] and 472 nM in test [3].

Regarding `C=CC(=O)N1CC2(CCN(c3nc4c(c(-c5c(C)ccc6[nH]ncc56)c3C#N)CC3CC43)C2)C1` (stereo not drawn) [Example 13-81], the IC50 in test [1] was over 5 µM; in test [2] it was 98 nM; in test [3], 319 nM.

On to `C=CC(=O)N1CC2(CCN(c3nc4c(c(-c5c(C)ccc6[nH]ncc56)c3C#N)C3CC3C4)C2)C1` (stereo not drawn) [Example 13-82], for which the IC50 in test [1] is over 5 µM; in test [2] it was 66 nM; in test [3], 462 nM.

For the compound `C=CC(=O)N1CC2(CCN(c3nc4c(c(-c5c(C)ccc6[nH]ncc56)c3C#N)CC(C3CC3)C4)C2)C1` [Example 13-83, (6R)-6-cyclopropyl-4-(5-methyl-1H-indazol-4-yl)-2-(2-(2-propenoyl)-2,6-diazaspiro[3.4]octan-6-yl)-6,7-dihydro-5H-cyclopenta[b]pyridine-3-carbonitrile|(6S)-6-cyclopropyl-4-(5-methyl-1H-indazol-4-yl)-2-(2-(2-propenoyl)-2,6-diazaspiro[3.4]octan-6-yl)-6,7-dihydro-5H-cyclopenta[b]pyridine-3-carbonitrile], the half-maximal inhibitory concentration (IC50) was over 5 µM in test [1], 86 nM in test [2] and over 5000 nM in test [3].

For `C=CC(=O)N1CC2(CCN(c3nc4c(c(-c5c(C)ccc6[nH]ncc56)c3C#N)C3C(C4)C3(C)C)C2)C1` (stereo not drawn) [Example 13-84], the figures for the IC50 in test [1], in test [2] and in test [3] were over 5 µM, 108 nM and 479 nM, respectively.

For the compound `C=CC(=O)N1CC2(CCN(c3nc4c(c(-c5c(C)c(C)cc6cnn(C)c56)c3C#N)CCC(C)(C)C4)C2)C1` [Example 13-89, 7,7-dimethyl-2-(2-(2-propenoyl)-2,6-diazaspiro[3.4]octan-6-yl)-4-(1,5,6-trimethyl-1H-indazol-7-yl)-5,6,7,8-tetrahydro-3-quinolinecarbonitrile], the IC50 in test [1] is over 5 µM; in test [2] it was 35 nM; in test [3] it was 101 nM.

With `C=CC(=O)N1CC2(CCN(c3nc4c(c(-c5c(C)c(C)cc6cnn(C)c56)c3C#N)COC(C)(C)C4)C2)C1` [Example 13-90, 7,7-dimethyl-2-(2-(2-propenoyl)-2,6-diazaspiro[3.4]octan-6-yl)-4-(1,5,6-trimethyl-1H-indazol-7-yl)-7,8-dihydro-5H-pyrano[4,3-b]pyridine-3-carbonitrile], the results for the IC50 in test [1], in test [2] and in test [3] were over 5 µM, 27 nM and 24 nM, respectively.

As for `C=CC(=O)N1CC2(CCN(c3nc4c(c(-c5c(C)ccc6[nH]ncc56)c3C#N)C[C@H]3C[C@@H]4C3(C)C)C2)C1` [Example 13-93, (6R,8R)-2-(2-acryloyl-2,6-diazaspiro[3.4]octan-6-yl)-7,7-dimethyl-4-(5-methyl-1H-indazol-4-yl)-5,6,7,8-tetrahydro-6,8-methanoquinoline-3-carbonitrile], the results for the IC50 in test [1], in test [2] and in test [3] were over 5 µM, 53 nM and 13 nM, respectively.

As usually defined, the IC50 is the concentration that gives 50% inhibition. A high value points to a need for much substance.
